Results as given in ChEMBL document CHEMBL5370533 (Eur J Med Chem, 2023).
The source made the active and inactive calls. The rule behind the calls is not given here.

How the values were obtained:
[1] = system: BaF3; experiment: cells; format: functional, cell-based; details: Mus musculus, BaF3, 72 h
Description: Antiproliferative activity against mouse BaF3 cells harboring FLT3 ITD/F691L mutant assessed as inhibition of cell growth incubated for 72 hrs

[2] = Tmax in Beagle dog at […], po; format: ADME, organism-based, Canis lupus familiaris; details: in vivo, dose 1.5 mg/kg
[3] = system: ACHN; experiment: Antiproliferative activity against human ACHN cells assessed as inhibition of cell growth; format: functional
[4] = system: BaF3; experiment: cells; format: functional, cell-based; details: Mus musculus, BaF3, 72 h; remark: listed apart in the source
Description: Antiproliferative activity against mouse BaF3 cells harboring FLT3 ITD/N676D mutant assessed as inhibition of cell growth incubated for 72 hrs

[5] = system: K562; experiment: Antiproliferative activity against human K562 cells deficit of oncogenic FLT3 assessed as inhibition of cell growth; format: functional, cell-based
[6] = Oral bioavailability in Beagle dog at […]; format: ADME, organism-based, Canis lupus familiaris; details: in vivo, dose 1.5 mg/kg
[7] = molecular target: Receptor-type tyrosine-protein kinase FLT3 (Homo sapiens, UniProt P36888, D835V/ITD); experiment: Binding affinity to FLT3 ITD/D835V mutant (unknown origin)
[8] = molecular target: CDK4/Cyclin D3 (Homo sapiens) (UniProt P11802+P30281); experiment: Inhibition of CDK4/Cyclin D3 (unknown origin); format: protein-complex assay; details: concentration not given here
[9] = molecular target: Receptor-type tyrosine-protein kinase FLT3 (Homo sapiens) (UniProt P36888); experiment: Inhibition of FLT3 in human MV4-11 cells assessed as decrease in phosphorylated FLT3 level incubated for 24 hrs by immunoblot analysis; format: cell-based; details: dose 20-600 nM
[10] = molecular target: Mast/stem cell growth factor receptor Kit (Homo sapiens) (UniProt P10721); experiment: Inhibition of c-Kit (unknown origin)
[11] = AUC(0 to t) in rat at 10 mg/kg, po; format: ADME, organism-based; set-up: dose 10 mg/kg, route po; details: in vivo
[12] = Half life in Beagle dog at […], po; format: ADME, organism-based, Canis lupus familiaris; details: in vivo, dose 1.5 mg/kg
[13] = Cmax in rat at 10 mg/kg, po; format: ADME, organism-based; set-up: dose 10 mg/kg, route po; details: in vivo
[14] = system: BaF3; experiment: Antiproliferative activity against mouse BaF3 cells harboring FLT3 D835V mutant assessed as inhibition of cell growth incubated for 72 hrs; format: functional, cell-based; details: BaF3, 72 h
[15] = molecular target: Receptor-type tyrosine-protein kinase FLT3 (Homo sapiens) (UniProt P36888); experiment: Inhibition of FLT3 in human MV4-11 cells assessed as decrease in phosphorylated ERK level incubated for 24 hrs by immunoblot analysis; format: cell-based; details: dose 20-600 nM
[16] = system: U-937; experiment: Antiproliferative activity against human U-937 cells expressing low level wild type FLT3 assessed as inhibition of cell growth; format: functional, cell-based
[17] = system: MV4-11; experiment: Antiproliferative activity against human MV4-11 cells harboring FLT3 ITD mutant assessed as inhibition of cell growth incubated for 72 hrs by CellTiter-Glo luminescent assay; format: functional, cell-based; details: MV4-11, 72 h
[18] = molecular target: Receptor-type tyrosine-protein kinase FLT3 (Homo sapiens, UniProt P36888, N841I); experiment: Binding affinity to FLT3 N841I mutant (unknown origin)
[19] = AUC (0 to t) in Beagle dog at […], po; format: ADME, organism-based, Canis lupus familiaris; set-up: dose 1.5 mg/kg, route po; details: in vivo
[20] = molecular target: T1, Receptor-type tyrosine-protein kinase FLT3 (Homo sapiens, UniProt P36888); experiment: Binding affinity to FLT3 (unknown origin)
T1 sequence (P36888 whole entry): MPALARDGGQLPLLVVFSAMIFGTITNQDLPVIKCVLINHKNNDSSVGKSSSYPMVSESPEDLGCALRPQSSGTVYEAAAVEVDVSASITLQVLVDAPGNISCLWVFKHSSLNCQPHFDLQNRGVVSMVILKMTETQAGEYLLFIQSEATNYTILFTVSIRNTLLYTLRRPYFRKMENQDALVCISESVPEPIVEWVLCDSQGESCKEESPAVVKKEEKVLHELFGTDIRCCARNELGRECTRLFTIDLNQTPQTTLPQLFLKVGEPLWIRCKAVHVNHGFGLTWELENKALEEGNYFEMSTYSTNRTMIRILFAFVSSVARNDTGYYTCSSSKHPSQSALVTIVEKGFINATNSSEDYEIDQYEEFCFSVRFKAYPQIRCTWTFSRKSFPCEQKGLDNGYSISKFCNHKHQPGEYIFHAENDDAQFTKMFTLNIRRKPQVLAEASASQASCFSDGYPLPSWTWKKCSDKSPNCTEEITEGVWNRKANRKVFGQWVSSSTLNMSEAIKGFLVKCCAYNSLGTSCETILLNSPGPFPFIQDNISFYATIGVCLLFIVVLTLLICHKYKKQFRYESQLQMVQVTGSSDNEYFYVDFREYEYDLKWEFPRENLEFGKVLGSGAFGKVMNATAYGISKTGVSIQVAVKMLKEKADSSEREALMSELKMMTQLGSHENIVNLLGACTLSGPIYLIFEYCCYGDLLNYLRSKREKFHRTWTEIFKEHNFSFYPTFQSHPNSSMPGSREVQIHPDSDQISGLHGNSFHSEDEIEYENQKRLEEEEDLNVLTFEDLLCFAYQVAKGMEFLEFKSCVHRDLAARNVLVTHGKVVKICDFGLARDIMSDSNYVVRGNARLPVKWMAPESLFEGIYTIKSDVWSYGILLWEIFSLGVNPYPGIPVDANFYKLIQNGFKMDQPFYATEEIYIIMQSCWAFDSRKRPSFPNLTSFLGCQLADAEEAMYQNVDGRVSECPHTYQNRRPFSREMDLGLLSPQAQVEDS

[21] = molecular target: Receptor-type tyrosine-protein kinase FLT3 (Homo sapiens) (UniProt P36888); experiment: Inhibition of FLT3 (unknown origin); details: concentration not given here
[22] = molecular target: Cyclin-dependent kinase 6 (Homo sapiens, UniProt Q00534); experiment: Inhibition of human CDK6 pretreated for 20 mins followed by [gamma-33P]-ATP addition and measured after 120 mins in presence of 10 uM ATP by radiometric Hot-SpotSM Kinase assay
[23] = Clearance in human liver microsomes measured per mg protein by LC-MS/MS analysis; format: ADME, Microsome; details: read-out: CLH
[24] = system: HL-60; experiment: Antiproliferative activity against human HL-60 cells expressing low level wild type FLT3 assessed as inhibition of cell growth; format: functional, cell-based
[25] = Half life in rat at 10 mg/kg, po; format: ADME, organism-based; details: in vivo
[26] = system: BaF3; experiment: cells; format: functional, cell-based; details: Mus musculus, BaF3, 72 h; remark: listed apart in the source
Description: Antiproliferative activity against mouse BaF3 cells harboring FLT3 ITD/D835V mutant assessed as inhibition of cell growth incubated for 72 hrs

[27] = system: MOLM-13; experiment: Antiproliferative activity against human MOLM-13 cells harboring FLT3 ITD mutant assessed as inhibition of cell growth; format: functional, cell-based
[28] = Cmax in Beagle dog at […], po; format: ADME, organism-based, Canis lupus familiaris; set-up: dose 1.5 mg/kg, route po; details: in vivo
[29] = system: LOX IMVI; experiment: Antiproliferative activity against human LOX IMVI cells assessed as inhibition of cell growth; format: functional
[30] = Cytotoxicity against mouse BaF3 cells assessed as inhibition of cell growth incubated for 72 hrs; format: toxicity, cell-based
[31] = Cytotoxicity against human PBMC cells assessed as inhibition of cell growth; format: toxicity, cell-based
[32] = molecular target: Receptor-type tyrosine-protein kinase FLT3 (Homo sapiens, UniProt P36888, D835V); experiment: Binding affinity to FLT3 D835V mutant (unknown origin)
[33] = molecular target: Receptor-type tyrosine-protein kinase FLT3 (Homo sapiens, UniProt P36888, F691L/ITD); experiment: Binding affinity to FLT3 ITD/F691L mutant (unknown origin)
[34] = system: MV4-11; experiment: animal or person; format: functional, Homo sapiens; details: Mus musculus, MV4-11, 336 h, route po, time 2 weeks
Description: Antitumor activity against human MV4-11 cells xenografted in nu/nu mouse assessed as inhibition of tumor growth at 50 mg/kg, po qd for 2 weeks by vernier caliper analysis

[35] = system: MV4-11; experiment: Antitumor activity against human MV4-11 cells xenografted in nu/nu mouse assessed as inhibition of tumor growth at 25 mg/kg, po qd for 2 weeks by vernier caliper analysis; format: functional; details: MV4-11, 336 h

Mast/stem cell growth factor receptor Kit (Homo sapiens), sequence (P10721 whole entry): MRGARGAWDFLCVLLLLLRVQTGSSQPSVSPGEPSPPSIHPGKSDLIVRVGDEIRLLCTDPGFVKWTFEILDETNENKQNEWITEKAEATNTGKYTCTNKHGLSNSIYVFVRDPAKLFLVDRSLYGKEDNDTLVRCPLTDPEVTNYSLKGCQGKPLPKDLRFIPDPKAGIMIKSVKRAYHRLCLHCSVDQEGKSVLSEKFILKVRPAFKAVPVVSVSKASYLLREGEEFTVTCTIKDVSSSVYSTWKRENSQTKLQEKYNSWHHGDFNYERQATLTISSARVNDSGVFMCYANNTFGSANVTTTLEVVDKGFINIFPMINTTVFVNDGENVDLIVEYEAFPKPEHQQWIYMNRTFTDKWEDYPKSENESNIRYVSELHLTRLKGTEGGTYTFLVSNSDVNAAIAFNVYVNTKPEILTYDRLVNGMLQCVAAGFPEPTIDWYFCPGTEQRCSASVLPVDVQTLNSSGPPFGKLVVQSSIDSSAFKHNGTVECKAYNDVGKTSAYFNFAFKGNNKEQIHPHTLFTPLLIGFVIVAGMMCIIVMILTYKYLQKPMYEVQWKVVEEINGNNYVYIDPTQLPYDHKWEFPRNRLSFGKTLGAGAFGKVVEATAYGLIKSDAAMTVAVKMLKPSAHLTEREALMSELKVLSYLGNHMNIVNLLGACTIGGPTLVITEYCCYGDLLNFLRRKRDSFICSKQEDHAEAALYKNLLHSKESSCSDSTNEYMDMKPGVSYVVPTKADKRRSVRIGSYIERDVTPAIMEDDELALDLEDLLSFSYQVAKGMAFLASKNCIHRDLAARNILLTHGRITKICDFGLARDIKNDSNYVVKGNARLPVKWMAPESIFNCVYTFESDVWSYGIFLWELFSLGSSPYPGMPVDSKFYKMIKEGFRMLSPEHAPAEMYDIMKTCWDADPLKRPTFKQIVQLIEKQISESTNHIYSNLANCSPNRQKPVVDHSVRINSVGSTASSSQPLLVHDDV
Cyclin-dependent kinase 6, sequence (Q00534 whole entry): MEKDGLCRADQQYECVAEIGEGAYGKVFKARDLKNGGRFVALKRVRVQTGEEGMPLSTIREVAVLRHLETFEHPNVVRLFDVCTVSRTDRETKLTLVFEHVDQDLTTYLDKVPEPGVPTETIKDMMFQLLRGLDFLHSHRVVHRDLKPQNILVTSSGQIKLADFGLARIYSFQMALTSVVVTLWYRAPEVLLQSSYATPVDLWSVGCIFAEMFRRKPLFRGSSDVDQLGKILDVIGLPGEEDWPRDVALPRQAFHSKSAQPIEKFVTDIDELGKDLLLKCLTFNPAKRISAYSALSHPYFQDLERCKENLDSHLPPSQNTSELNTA

Compound O=C(Nc1ccc(N2CCNCC2)cc1)c1n[nH]cc1Nc1cc(Oc2ccccc2)ncn1 has an IC50 [1] of 95 nM, a Tmax [2] of 1.67 h and a GI50 [3] of less than 1000 nM. It also gave an IC50 [4] of 54 nM, an IC50 [5] of 572 nM and a bioavailability [6] of 72.7%. For the same compound, the Kd [7] was 0.58 nM, the inhibition [8] was 79.2% and the inhibition [9] was “Dose-Dependent Effect”. The inhibition [10] was “Active”, the AUC(0-t) [11] was 1080 ng·h/mL and the half-life [12] was 11.1 h. For the same compound, the Cmax [13] was 144 ng/mL, the IC50 [14] was 43 nM and the inhibition [15] was “Dose-Dependent Effect”. The IC50 [16] was 692 nM, the IC50 [17] was 15 nM and the Kd [18] was 77.2 nM. The AUC(0-t) [19] was 762 ng·h/mL, the Kd [20] was 22.1 nM and the inhibition [21] was 99.6%. It also gave an IC50 [22] of 122 nM, a microsomal CLint [23] of 7.4 µL/min/mg and an IC50 [24] of 972 nM. For the same compound, the half-life [25] was 3.5 h, the IC50 [26] was 9 nM and the IC50 [27] was 16.3 nM. It also gave a Cmax [28] of 52.1 ng/mL, a GI50 [29] of less than 1000 nM and an IC50 at 72 h [30] of 2920 nM. For the same compound, the IC50 [31] was 831 nM, the Kd [32] was 1.54 nM and the Kd [33] was 1.61 nM. The inhibition in vivo at 50 mg/kg [34] was 94% and the inhibition in vivo at 25 mg/kg [35] was 94.2%.
